Experiments:
E. cloacae NCTC 11936 = assay: Nitroreductase substrate in Columbia medium, growth and colony color; format: cell-based; conditions: 40 mg substrate in 400 ml Columbia medium, 24 hours at 37° C., colonies examined visually
Description: (§1) 40 mg of substrate were dissolved in 4 ml of dimethylsulfoxide and added to 400 ml of previously autoclaved Columbia medium. The medium was distributed in Petri dishes 90 mm in diameter at the rate of 20 ml per dish. Ten strains of microorganisms obtained from collections and belonging to various species of bacteria and yeasts are inoculated as spots of about 10 000 colony forming units. The media are incubated for 24 hours at 37° C. and then the colonies formed are examined visually.

P. rettgeri NCTC 7475 = assay: as above; format: cell-based; conditions: 40 mg substrate in 400 ml Columbia medium, 24 hours at 37° C., colonies examined visually
Description: as §1

**Q.** Which results are given for C[N+]1=C(C=Cc2ccc([N+](=O)[O-])cc2)C(C)(C)c2ccccc21.[I-] [Iodinated 2-(4-nitrostyryl)-1,3,3-trimethylindolinium]?
**A.** Color (E. cloacae NCTC 11936): Pale pink; Color (P. rettgeri NCTC 7475): Pale pink

Source: patent US8883437B2, “Nitroreductase enzymatic substrates” (bioMérieux S.A., priority 2010, dated 2014)
